According to PMC10321317 (Genome Biology and Evolution, 2023):
Entries after “also recorded” stand apart in the source; their conditions may differ. Square brackets hold non-standard residues; d marks the D form. Ends that are not written are not given here. Peptide text beside a SMILES is read from it. pGlu = O=C1CC[C@@H](C(=O)O)N1

Key:
[1] = target: T1, B. floridae GnRHR1 (Branchiostoma floridae, UniProt C0IP19); assay: Luminescence response in HEK293-G5a cells expressing B. floridae GnRHR1 (with Gαqi9); assay type: cell-based
T1 sequence (C0IP19 1-403): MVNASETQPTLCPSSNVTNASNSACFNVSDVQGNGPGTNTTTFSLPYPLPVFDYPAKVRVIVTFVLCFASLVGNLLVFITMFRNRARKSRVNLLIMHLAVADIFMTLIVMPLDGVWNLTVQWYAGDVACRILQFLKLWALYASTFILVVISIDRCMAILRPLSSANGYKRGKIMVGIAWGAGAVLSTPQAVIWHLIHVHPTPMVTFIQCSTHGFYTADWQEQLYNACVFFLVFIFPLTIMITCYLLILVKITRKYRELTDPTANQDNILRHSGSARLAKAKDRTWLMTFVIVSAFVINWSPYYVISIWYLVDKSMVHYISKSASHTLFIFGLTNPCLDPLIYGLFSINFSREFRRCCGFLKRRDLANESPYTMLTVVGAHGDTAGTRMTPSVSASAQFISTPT
From the text: (§1) For this purpose, we expressed individual receptors in a heterologous expression system comprising human embryo kidney 293 cells (HEK293-G5a) cells and monitored luminescence responses to three synthetic peptides.
(§2) Five millimoles of stock solutions of all peptides were first prepared in 50% Dimethyl sulfoxide. […] These receptors were codon-optimized for mammalian cell lines, synthesized and cloned into pcDNA3.4(+) vector by Genscript synthesis services. A 5′ partial Kozak translation initiation sequence (CCACC) was also included to improve expression. The codon-optimized receptor sequences are provided in supplementary file 9, Supplementary Material online. HEK293-G5a (Angio-proteomie CAT no. cAP-0200GFP-AEQ-Cyto) cells were cultured in 96 well-plates containing 100 μl of Dublecco’s Modified Eagle medium (DMEM; Thermo; Cat. No. 10566016) supplemented with 10% foetal bovine serum (Thermo; Cat. No. 10082147). The plates were kept in an incubator at 37°C and 5% CO2. Upon reaching 85% confluency, cells were co-transfected with plasmids encoding individual receptors or the empty pcDNA3.1 + vector (control), and the Gαqi9 promiscuous protein [Addgene; Cat. No. 125711 {[Masharina et al. 2012]}], as described previously ([Yañez-Guerra et al. 2022]). Transfections were carried out with 60 ng of each plasmid and 0.45 μl of the transfection reagent Transfectamine 5,000 (AAT-bioquest; Cat. No. 60022) per well. Two days post-transfection, the media was replaced with fresh DMEM medium supplemented with […] coelenterazine-H (Thermo Fisher Scientific; Cat. No. C6780). The cells were incubated for 2 h and then used for the luminescence assay. Various concentrations of the three synthetic peptides ranging from 10^−4 M to 10^−12 M were prepared in DMEM media and tested on the cells. Luminescence levels were recorded and integrated over a 65-s measurement period in a FlexStation 3 Multi-Mode Microplate Reader (Molecular Devices). A minimum of two independent transfections (biological replicates) for each receptor and two–three technical replicates for each peptide concentration were performed. […]

[2] = target: T2, B. floridae CRZR1 (Branchiostoma floridae, UniProt C0IP22); assay: Luminescence response in HEK293-G5a cells expressing B. floridae CRZR1 (with Gαqi9); assay type: cell-based
T2 sequence (C0IP22 1-831): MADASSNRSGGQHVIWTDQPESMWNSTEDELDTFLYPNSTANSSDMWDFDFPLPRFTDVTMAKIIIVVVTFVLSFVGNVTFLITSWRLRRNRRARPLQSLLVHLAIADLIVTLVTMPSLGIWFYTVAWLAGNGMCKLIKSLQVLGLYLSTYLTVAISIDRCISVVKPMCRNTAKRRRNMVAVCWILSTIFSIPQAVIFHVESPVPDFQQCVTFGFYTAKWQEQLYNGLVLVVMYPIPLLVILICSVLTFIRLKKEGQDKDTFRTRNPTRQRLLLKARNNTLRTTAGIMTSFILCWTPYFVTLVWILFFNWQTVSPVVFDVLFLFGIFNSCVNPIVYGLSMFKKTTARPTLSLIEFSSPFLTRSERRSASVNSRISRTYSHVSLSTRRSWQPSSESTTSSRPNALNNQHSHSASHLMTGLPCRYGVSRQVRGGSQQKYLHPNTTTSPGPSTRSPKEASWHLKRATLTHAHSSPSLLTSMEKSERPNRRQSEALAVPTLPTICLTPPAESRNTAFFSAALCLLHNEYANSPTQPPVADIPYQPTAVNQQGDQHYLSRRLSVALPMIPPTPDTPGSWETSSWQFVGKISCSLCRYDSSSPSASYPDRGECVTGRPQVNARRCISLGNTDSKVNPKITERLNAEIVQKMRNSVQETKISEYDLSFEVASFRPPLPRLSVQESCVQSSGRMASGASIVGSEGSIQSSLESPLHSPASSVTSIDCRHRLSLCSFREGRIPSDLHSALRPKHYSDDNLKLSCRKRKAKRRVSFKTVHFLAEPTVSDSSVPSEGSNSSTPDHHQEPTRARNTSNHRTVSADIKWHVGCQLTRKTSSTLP
From the text: as §1, §2

[3] = target: one of the two CRZ-like receptors; design: method as in Roch, Tello, et al. 2014; conditions: ref Roch, Tello, et al. 2014; cited from earlier work
[4] = target: T3, B. floridae CRZR2 (Branchiostoma floridae, UniProt C4N9P5); assay: Luminescence response in HEK293-G5a cells expressing B. floridae CRZR2 (with Gαqi9); assay type: cell-based
T3 sequence (C4N9P5 1-421): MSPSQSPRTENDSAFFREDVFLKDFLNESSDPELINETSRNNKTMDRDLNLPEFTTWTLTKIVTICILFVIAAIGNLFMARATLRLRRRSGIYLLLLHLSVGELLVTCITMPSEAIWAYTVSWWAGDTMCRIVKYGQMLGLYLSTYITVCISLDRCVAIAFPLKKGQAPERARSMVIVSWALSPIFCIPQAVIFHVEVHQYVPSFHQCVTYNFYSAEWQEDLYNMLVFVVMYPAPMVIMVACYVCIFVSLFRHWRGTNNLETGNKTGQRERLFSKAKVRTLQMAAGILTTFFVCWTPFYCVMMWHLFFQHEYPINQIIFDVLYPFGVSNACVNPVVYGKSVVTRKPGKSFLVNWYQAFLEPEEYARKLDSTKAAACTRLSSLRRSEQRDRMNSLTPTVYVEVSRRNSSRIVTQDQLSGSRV
From the text: as §1
Five millimoles of stock solutions of all peptides were first prepared in 50% Dimethyl sulfoxide. […] These receptors were codon-optimized for mammalian cell lines, synthesized and cloned into pcDNA3.4(+) vector by Genscript synthesis services. A 5′ partial Kozak translation initiation sequence (CCACC) was also included to improve expression. The codon-optimized receptor sequences are provided in supplementary file 9, Supplementary Material online. HEK293-G5a (Angio-proteomie CAT no. cAP-0200GFP-AEQ-Cyto) cells were cultured in 96 well-plates containing 100 μl of Dublecco’s Modified Eagle medium (DMEM; Thermo; Cat. No. 10566016) supplemented with 10% foetal bovine serum (Thermo; Cat. No. 10082147). The plates were kept in an incubator at 37°C and 5% CO2. […] The cells were incubated for 2 h and then used for the luminescence assay. […] Luminescence levels were recorded and integrated over a 65-s measurement period in a FlexStation 3 Multi-Mode Microplate Reader (Molecular Devices). […]

[5] = target: T4, B. floridae GnRHR2 (Branchiostoma floridae, UniProt C0IP20); assay: Luminescence response in HEK293-G5a cells expressing B. floridae GnRHR2 (with Gαqi9); assay type: cell-based
T4 sequence (C0IP20 1-397): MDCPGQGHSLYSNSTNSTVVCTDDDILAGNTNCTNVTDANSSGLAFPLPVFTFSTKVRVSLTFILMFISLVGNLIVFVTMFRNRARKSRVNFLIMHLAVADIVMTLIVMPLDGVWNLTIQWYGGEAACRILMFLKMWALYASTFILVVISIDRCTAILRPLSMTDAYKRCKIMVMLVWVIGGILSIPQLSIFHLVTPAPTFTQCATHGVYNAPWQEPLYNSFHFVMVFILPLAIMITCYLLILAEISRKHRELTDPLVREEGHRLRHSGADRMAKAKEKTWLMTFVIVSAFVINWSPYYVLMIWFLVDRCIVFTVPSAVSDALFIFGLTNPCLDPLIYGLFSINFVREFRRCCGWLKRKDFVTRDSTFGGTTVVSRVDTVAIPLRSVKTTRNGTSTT
From the text: as §1, §2

[6] = target: T5, B. floridae CRZR3 (Branchiostoma floridae, UniProt A0A9J7HT38); assay: Luminescence response in HEK293-G5a cells expressing B. floridae CRZR3 (with Gαqi9); assay type: cell-based; conditions: for EC50: fig. 2D, HEK293-G5a, Gαqi9, 10^−4 M to 10^−12 M in DMEM, luminescence integrated over 65 s, normalized to maximum response, four-parameter curve, minimum of two independent transfections, read-out: EC50 values for the dose–response curves, CRZR3
T5 sequence (A0A9J7HT38 1-394): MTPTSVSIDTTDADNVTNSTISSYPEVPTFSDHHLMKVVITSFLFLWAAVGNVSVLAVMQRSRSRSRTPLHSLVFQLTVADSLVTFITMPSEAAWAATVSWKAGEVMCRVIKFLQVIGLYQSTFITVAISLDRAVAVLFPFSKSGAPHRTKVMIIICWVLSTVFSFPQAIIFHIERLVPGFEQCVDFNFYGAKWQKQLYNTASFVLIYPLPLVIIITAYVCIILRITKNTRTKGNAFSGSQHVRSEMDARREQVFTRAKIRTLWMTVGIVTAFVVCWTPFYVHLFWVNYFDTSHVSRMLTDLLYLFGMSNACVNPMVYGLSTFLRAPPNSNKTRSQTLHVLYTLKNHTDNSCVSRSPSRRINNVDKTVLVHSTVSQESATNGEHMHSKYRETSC
From the text: as §1
Five millimoles of stock solutions of all peptides were first prepared in 50% Dimethyl sulfoxide. […] These receptors were codon-optimized for mammalian cell lines, synthesized and cloned into pcDNA3.4(+) vector by Genscript synthesis services. A 5′ partial Kozak translation initiation sequence (CCACC) was also included to improve expression. The codon-optimized receptor sequences are provided in supplementary file 9, Supplementary Material online. HEK293-G5a (Angio-proteomie CAT no. cAP-0200GFP-AEQ-Cyto) cells were cultured in 96 well-plates containing 100 μl of Dublecco’s Modified Eagle medium (DMEM; Thermo; Cat. No. 10566016) supplemented with 10% foetal bovine serum (Thermo; Cat. No. 10082147). The plates were kept in an incubator at 37°C and 5% CO2. Upon reaching 85% confluency, cells were co-transfected with plasmids encoding individual receptors or the empty pcDNA3.1 + vector (control), and the Gαqi9 promiscuous protein [Addgene; Cat. No. 125711 {[Masharina et al. 2012]}], as described previously ([Yañez-Guerra et al. 2022]). Transfections were carried out with 60 ng of each plasmid and 0.45 μl of the transfection reagent Transfectamine 5,000 (AAT-bioquest; Cat. No. 60022) per well. Two days post-transfection, the media was replaced with fresh DMEM medium supplemented with […] coelenterazine-H (Thermo Fisher Scientific; Cat. No. C6780). The cells were incubated for 2 h and then used for the luminescence assay. Various concentrations of the three synthetic peptides ranging from 10^−4 M to 10^−12 M were prepared in DMEM media and tested on the cells. Luminescence levels were recorded and integrated over a 65-s measurement period in a FlexStation 3 Multi-Mode Microplate Reader (Molecular Devices). A minimum of two independent transfections (biological replicates) for each receptor and two–three technical replicates for each peptide concentration were performed. The responses were normalized to the maximum response obtained following the addition of peptide in each experiment (100% activation) and to the response obtained with the vehicle media (0% activation). Normalized data from the independent transfections was used to plot the dose–response curves (fitted with a four-parameter curve) using the package drc in R ([Ritz et al. 2015]). The raw data for the emtpy-vector control and receptor characterization are provided in supplementary files 10 and 11, Supplementary Material online, respectively. The script used for the dose–response curve analysis is available on Github (https://github.com/Imnotabioinformatician/Branchiostoma_Dose_response_curves).

Molecule | activation of GnRHR1 (in words) ([1]; HEK293-G5a cells, luminescence) | EC50 for the response, CRZR1 (in words) [2] | activation of CRZR1 (in words) [2] | activation of one of the two CRZ-like receptors (in words) [3] | EC50 for the response, CRZR2 (in words) [4] | activation of CRZR2 (in words) [4] | activation of GnRHR2 (in words) ([5]; HEK293-G5a cells, luminescence) | EC50 for the response, CRZR3 (in words) ([6]; HEK293-G5a cells, luminescence) | activation of CRZR3 (in words) ([6]; HEK293-G5a cells, luminescence) | EC50 [6] [nM] | EC50 for the response, GnRHR1 (in words) ([1]; HEK293-G5a cells, luminescence) | EC50 ([1]; fig. 2D, HEK293-G5a, Gαqi9, 10^−4 M to 10^−12 M in DMEM, luminescence integrated over 65 s, normalized to maximum response, four-parameter curve, minimum of two independent transfections, read-out: EC50 values for the dose–response curves, GnRHR1) [nM] | EC50 for the response, GnRHR2 (in words) ([5]; HEK293-G5a cells, luminescence) | EC50 ([5]; fig. 2D, HEK293-G5a, Gαqi9, 10^−4 M to 10^−12 M in DMEM, luminescence integrated over 65 s, normalized to maximum response, four-parameter curve, minimum of two independent transfections, read-out: EC50 values for the dose–response curves, GnRHR2) [nM]
CC[C@H](C)[C@H](NC(=O)[C@@H]1CCC(=O)N1)C(=O)N[C@@H](CC(C)C)C(=O)N[C@@H](CS)C(=O)N[C@@H](C)C(=O)N[C@@H](CCCNC(=N)N)C(=O)N[C@@H](C)C(=O)N[C@@H](Cc1ccccc1)C(=O)N[C@H](C(=O)N[C@@H](Cc1ccc(O)cc1)C(=O)N[C@H](C(=O)N[C@@H](Cc1c[nH]cn1)C(=O)N[C@H](C(=O)N[C@@H](Cc1c[nH]c2ccccc12)C(N)=O)[C@@H](C)O)[C@@H](C)O)[C@@H](C)O [CRZ-ext] ([pGlu]ILCARAFTYTHTW-NH2) | Neither of these two receptors were activated | equally high | all activated by CRZ, GnRH, and CRZ-ext; also recorded: also activated by CRZ-ext | high nanomolar range | high nanomolar range | all activated by CRZ, GnRH, and CRZ-ext | Neither of these two receptors were activated | equally high | all activated by CRZ, GnRH, and CRZ-ext; also recorded: also activated by CRZ-ext | 950 |  |  |  | 
YSYSYGFAP-NH2 |  | mid-to-low nanomolar physiological range |  |  |  |  |  |  |  | 3800 | low nanomolar range | 3.2 | low nanomolar range | 2.2
FTYTHTW-NH2 [CRZ, FTYTHTW-NH2] |  |  |  |  |  |  |  |  |  | 6.9 |  |  |  | 
